Data from US20240285497A1, “METHOD FOR EVALUATING AN ABILITY OF A TEST SAMPLE TO TRIGGER A FOREIGN BODY REACTION IN THE SKIN, A METHOD FOR SCREENING A SUBSTANCE HAVING AN ABILITY TO INHIBIT A FOREIGN BODY REACTION IN THE SKIN, AND AN AGENT FOR INHIBITING A FOREIGN BODY REACTION IN THE SKIN” (priority 2021, published 2024).

Legend:
[1] = system: xenobiotic responsive element (XRE); assay: Evaluation of ability to trigger a foreign body reaction using XRE-NLuc::HaCaT reporter cells (NLuc luminescence per viable cell); format: cell-based, human
Experimental: First, XRE-NLuc::HaCaT cells were suspended in a DMEM medium at the density of 1×10^5 cell/mL, and 100 μL of the thus obtained suspension was added to each well of white 96 well plates (Thermo Fisher Scientific, MA, U.S.A.; Catalogue No.: 136102) so that the number of the cells in each well was 10,000 cells/well. In accordance with a conventional method, the cells were incubated at 37° C., 5% CO2 for 24 hours. Thereafter, the DMEM medium was removed, and 100 μL of a new DMEM medium containing FICZ (6-Formylindolo[3,2-b]carbazole; CAS RN: 172922-91-7) as a test sample at a predetermined concentration was added, followed by further incubation for 24 hours at 37° C., 5% CO2. FICZ is known as a substance that triggers a foreign body reaction in which XRE is involved. Meanwhile, negative controls were prepared by adding 100 μL of a DMEM medium containing no FICZ instead of the DMEM medium containing FICZ, which were also incubated for 24 hours at 37° C., 5% CO2.
After the above-described incubation for 24 hours, the number of cells in each well was counted by a colorimetric method based on the degradation of tetrazolium salt (WST-1) by mitochondrial dehydrogenase in viable cells. Specifically, 3 μL of Premix WST-1 (Product Name “Premix WST-1 Cell Proliferation Assay System”; Takara Bio Inc., Shiga, Japan; Catalogue No.: MK400) was added to each well of 96 well plates, and then the cells were cultured for 1 hour at 37° C., 5% CO2. Thereafter, 93 μL of cell culture supernatant was removed from each well to measure the absorbance of the supernatant in each well. The removed supernatants were transferred to transparent 96 well plates, and then the absorbance at 450 nm (A450) and, as a reference wavelength, the absorbance at 670 nm (A670) were measured using iMark microplate reader (Bio-Rad; Catalogue No.: 168-1130JA). A value (A450-A670) was obtained by subtracting the absorbance at 670 nm (A670) from the absorbance at 450 nm (A450). The relative viable cell count (%) was expressed as a relative value with the value (A450-A670) obtained for the negative control as 100%.
Meanwhile, the expression level of the reporter protein was measured using samples left on the white 96-well plates after removing the supernatants for the viable cell count measurement. Briefly, 7 μL of Nano-Glo Luciferase Assay System (Promega; Catalogue No.: N110) was added to each well of the white 96-well plate. After 3 mins, the luminescence intensity obtained from the reporter protein produced by XRE-NLuc::HaCaT cells in each well was measured using GloMax Navigator Microplate Luminometer (Promega; Catalogue No.: GM2000). The obtained luminescence intensities were divided by the relative viable cell counts obtained by the above-described colorimetric method to obtain the expression level of the reporter protein (luminescence intensity) per unit number of viable cells.
In FIG. 3, the luminescence intensity per unit number of viable cells obtained from XRE-NLuc::HaCaT cells incubated with each of the DMEM medium containing FICZ at different concentrations was shown as a relative value, with the luminescence intensity per unit number of viable cells obtained for the negative control set to 1. […] In the figure, “*” and “**” indicate statistically significant differences (p<0.05 and p<0.01, respectively) from the negative control (“FICZ Concentration 0 nM” in FIG. 3).
The ability of each test sample to trigger a foreign body reaction was evaluated using XRE-NLuc::HaCaT cells in the same manner as in Experiment 1-2, except that I3C (Indole-3-carbinol, CAS RN: 700-06-1), ITE (2-(1′H-indole-3′-carbonyl)-thiazole-4-carboxylic acid methyl ester, CAS RN: 448906-42-1), and Indirubin (CAS RN: 479-41-4) were used instead of FICZ as test samples and the amount of each test sample added to the DMEM medium was appropriately changed.

[2] = system: TIMP-1 (Tissue Inhibitor of Matrix Metalloprotease-1) mRNA; assay: TIMP-1 mRNA expression in HaCaT cells, quantitative PCR; format: cell-based, human; conditions: 100 μM, 24 hours
Experimental: Specifically, the mRNA expression of TIMP-1 in the HaCaT cells treated with Fraglide-1 was evaluated by performing quantitative PCR using cDNA obtained in Experiment 4-1. The procedure of quantitative PCR was the same as described in Experiment 4-1 except that the primers shown in below Table 5 were used.
(§1) In FIG. 14, the results obtained for each sample were shown in relative values normalized by setting the expression level of TIMP-1 in the HaCaT cells incubated for 24 hours in DMEM medium not containing Fraglide-1 (i.e., the non-treated HaCaT cells) as 1. The results shown in FIG. 14 are the mean of values obtained from three independent experiments, and the error bars represent standard deviation (SD).
On the other hand, as comparison, the similar evaluation was performed for retinoic acid and nicotinamide, which are known as active ingredients of anti-wrinkle agents, using cDNA obtained in Experiment 4-2. The procedure for quantitative PCR was the same as already described in Experiment 3-1, except that the primers shown in Table 5 were used.
as §1, with “15,” for “14,”, “either retinoic acid and nicotinic acid amide” for “Fraglide-1”, “15” for “14”

Compound | luminescence intensity (reporter protein expression) per unit number of viable cells relative to negative control ([1]; 4 nM FICZ, 24 hours, XRE-NLuc::HaCaT cells) | luminescence intensity from XRE-NLuc::HaCaT cells, dependence on concentration ([1]; FICZ at different concentrations, 24 hours) | EC50 ([1]; XRE-NLuc::HaCaT cells, reporter protein expression) | Present Experiment Maximum Effective concentration Max. Induction ([1]; XRE-NLuc::HaCaT cells, concentration at which reporter expression was maximized) | expression level of TIMP-1 compared to non-treated HaCaT cells [2] | expression level of TIMP-1 mRNA vs non-treated HaCaT cells (in words) ([2]; Fraglide-1 1 μM, 10 μM, retinoic acid / nicotinic acid amide at predetermined concentrations)
6-formylindolo[3,2-b] carbazole [FICZ] | about three times higher | increased along with the concentration of FICZ | 12 nM | 0.5 µM | – | –
O=C1C=C(c2ccccc2)C(O)O1 (stereo not drawn) [Fraglide-1, 5-hydroxy-4-phenyl-2(5H)butenolide] | – | – | – | – | about 4 fold | concentration-dependent increase
